Numbers after ± are expanded uncertainties.
Conditions: Crystal; visual observation

- Normal melting temperature: 182 ± 0.7 °C
SMILES: C=CC(=O)Nc1cc(F)c(Br)c(F)c1 [N-(4-bromo-3,5-difluorophenyl)acrylamide]

From the NIST ThermoML archive (doi:10.1021/je900609f)
